Source: US10703770B2, “Compositions and methods for the dissolution and depolymerization of lignin” (National Technology & Engineering Solutions of Sandia, LLC, priority 2016, dated 2020)
“And” between values parts separate entries of the source, which are not always exact repeats. Equal entries are not always repeated. “Also recorded” adds a separate entry of the source.

Legend:
[1] = 25° C.; cited from earlier work
[2] = Solubilization of alkali lignin in solvents; conditions: 20 °C (room temperature), solvent 5 g
Description: Alkali lignin (average molecular weight of lignin obtained from Sigma-Aldrich reported as 60.0 kDa) with low sulfonate content was used as a technical lignin substrate for the rapid solubilization experiments.
Confocal microscopy (10× magnification) was used to observe the morphologies of lignin before and after solubilization and precipitation, and the results are shown in FIGS. 8D-8F.
CTec2+HTec2 (9:1, v/v) = assay: Tolerance of commercial enzyme cocktails to IL in saccharification; format: biochemical
Description: FIG. 4C. Effects of some parameters on the sugar yield: IL concentration in hydrolysis. Normal operation conditions: pretreatment, 10 wt % SG loading, 90 wt % IL, 160° C., 0.5 h (3 h for eucalyptus); saccharification, 10 wt % IL, 20 mg protein/g SG, 50 ° C., 72 h.
As a result, the associated IL recycling and wastewater treatment costs create significant economic and process engineering challenges for the commercial scale-up of this technology. In the present process, commercial cocktails of CTec2+HTec2 (9:1, v/v) could tolerant about 10 wt % IL in saccharification process (FIG. 4C). […] [OAc] is tolerant to commercial cocktails not only in pH match, but also in its low toxic nature.
Generally, SSF requires compatible fermentation and saccharification conditions, with a similar pH, temperature and optimum substrate concentration. In a case of IL participating SSF, a compromise IL concentration for the two stages is an accessional requirement. […] [OAc] concentration of 10 wt %, however, increasing the [EOA] […] Thus, it would be interesting to see the performance of the wild yeast under different IL concentrations.
One-pot pretreatment, saccharification and fermentation: In a typical procedure, SG (100 mg) was mixed with ([EOA][OAc]) at a 10% biomass loading in a 15 mL capped glass pressure tube and pretreated in a convection oven at 160° C. for 0.5 h. […]

[3] = tested on: Saccharomyces cerevisiae strain BY4741; assay: Toxicity test of [EOA][OAc] on yeast growth; format: cell-based
Description: FIG. 5A. Toxicity test of [EOA][OAc]. Conditions: yeast strain: Saccharomyces cerevisiae strain BY4741, growth condition: in 24-well microplate with orbital-high intensity shaking/31° C./in IL solution (10 g/L glucose in each IL solutions), volume of the cell culture was 0.5 mL.
For toxicity screening, a wild type yeast strain BY4741 was technically used and it was immersed in various IL concentrations from 2.5 to 15 wt %.

[4] = reported (refs 24, 25); cited from earlier work

OCCO [EG, ethylene glycol]
viscosity [1]: 0.0162 N s/m^2 | Solubility (wt %) of alkali lignin [2]: > 30 wt % and ~31 wt %

OCC(O)CO [Glycerol]
viscosity [1]: 0.95 N s/m^2

CC1COC(=O)O1 (stereo not drawn) [PC, propylene carbonate, reference compound]
Solubility (wt %) of alkali lignin [2]: Negligible solubility; also recorded: Trace

CC(=O)O.NCCO [[EOA][OAc], ethanolamine acetate]
IL concentration tolerated by commercial cocktails in saccharification (CTec2+HTec2 (9:1, v/v); CTec2+HTec2 (9:1, v/v), 50 °C, 72 h): about 10 wt % | glucose yield at raised IL concentration in saccharification (CTec2+HTec2 (9:1, v/v); [EOA][OAc] concentration over 10 wt %): decreased glucose yield | yeast growth ([3]; 5 wt % IL concentration): better yeast growth | yeast strain growth ([3]; IL concentrations from 2.5 to 15 wt %, 31 °C, 10 g/L glucose): better growth occurs in a lower IL titer below 10 wt % | thermal decomposition temperature, Td [4]: above 200 °C
